Target: T1, METTL3-14 complex (Homo sapiens, UniProt Q86U44)
T1 construct: genes encoding the full-length and MTase domain of human METTL3; METTL3-14 FL: full length of METTL3-14; 10x His (thrombin-cleavable) (cleaved yes); made in house; host or cells: Trichoplusia ni (Hi5) cells co-infected with two baculoviruses (virus made in Sf9)
Test: Mass spectrometry based METTL3-14 enzyme based assay (m^6A level of single strand RNA substrate)
Assay type: biochemical
Conditions: read-out: IC50, METTL3-14 inhibition, mass spectrometric enzyme based assay
Procedure: The 30 nM of METTL3-14 was incubated with 300 nM of SAM, 300 nM of RNA substrates, and serially diluted compounds at 23 °C for 1 h as described above. The enzymatic reaction was stopped by heating at 80 °C for 10 min and centrifuged at 15,000× g for 10 min. Then, the reacted RNA in the supernatant was digested to nucleosides by using 2 units of nuclease P1 (NEB, Ipswich, MA, USA) and dephosphorylated by using 1 unit of alkaline phosphatase (NEB) at 37 °C for 2 h.
The produced nucleosides were detected by reversed-phase high-performance liquid chromatography on an ACQUITY BEH C18 column ([…], 2.1 mm × 50 mm; Waters) coupled with mass spectrometry detection using an EVOQ Elite ER LC-TQ (Bruker, Billerica, MA, USA). The adenosine and m^6A were quantified using an MRM transition as follows: m/z = 267.9 -> 136.1 and m/z = 282.1 -> 150.1, respectively. (Retention time 5 min). The m^6A/A nucleoside ratio of the eltrombopag-treated sample was normalized to the corresponding value of the DMSO treated negative control. The IC50 values were calculated by a nonlinear regression analysis using OriginPro 9.1 software (OriginLab).

T1 sequence (Q86U44 whole entry, the tested form may be a part): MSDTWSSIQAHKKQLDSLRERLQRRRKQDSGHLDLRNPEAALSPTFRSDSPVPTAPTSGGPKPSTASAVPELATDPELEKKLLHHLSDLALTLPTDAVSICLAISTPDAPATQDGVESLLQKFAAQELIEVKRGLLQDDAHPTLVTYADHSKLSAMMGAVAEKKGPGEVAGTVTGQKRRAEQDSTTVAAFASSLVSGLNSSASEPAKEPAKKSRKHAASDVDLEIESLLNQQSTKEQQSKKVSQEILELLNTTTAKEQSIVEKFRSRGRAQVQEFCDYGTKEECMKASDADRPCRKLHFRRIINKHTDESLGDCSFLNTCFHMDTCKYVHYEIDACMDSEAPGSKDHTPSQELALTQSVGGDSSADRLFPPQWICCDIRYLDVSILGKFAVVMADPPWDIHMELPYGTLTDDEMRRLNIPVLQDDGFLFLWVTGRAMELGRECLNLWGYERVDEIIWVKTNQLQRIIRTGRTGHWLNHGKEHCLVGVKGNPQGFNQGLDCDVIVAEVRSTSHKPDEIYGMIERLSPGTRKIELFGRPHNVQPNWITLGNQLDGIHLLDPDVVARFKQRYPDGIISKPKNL
T1 sequence (Q9HCE5 whole entry partner, the tested form may be a part): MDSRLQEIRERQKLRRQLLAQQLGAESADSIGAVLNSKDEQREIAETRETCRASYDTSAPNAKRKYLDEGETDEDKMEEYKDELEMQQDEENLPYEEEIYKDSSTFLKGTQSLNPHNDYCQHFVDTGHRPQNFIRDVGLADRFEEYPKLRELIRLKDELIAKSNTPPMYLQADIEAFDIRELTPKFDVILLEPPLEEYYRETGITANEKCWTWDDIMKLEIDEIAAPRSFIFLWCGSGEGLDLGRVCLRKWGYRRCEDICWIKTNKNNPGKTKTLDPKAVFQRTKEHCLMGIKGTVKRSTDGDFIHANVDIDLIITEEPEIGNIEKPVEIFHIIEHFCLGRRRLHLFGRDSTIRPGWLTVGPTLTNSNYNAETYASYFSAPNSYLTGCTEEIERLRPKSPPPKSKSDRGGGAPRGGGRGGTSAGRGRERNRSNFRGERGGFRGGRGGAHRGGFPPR

With CC1=NN(c2ccc(C)c(C)c2)C(=O)/C1=N\Nc1cccc(-c2cccc(C(=O)O)c2)c1O [Eltrombopag] the IC50 was 4.55 µM.

— paper PMC9032718, “Eltrombopag as an Allosteric Inhibitor of the METTL3-14 Complex Affecting the m^6A Methylation of RNA in Acute Myeloid Leukemia Cells” (Pharmaceuticals, 2022)
